Reference: patent publication US12590106B2, “Spiromacrocyclic orexin 2 receptor agonists” (H. Lundbeck A/S, priority 2023, dated 2026)

Target: T1, human Ox2R (Homo sapiens, UniProt O43614)
T1 construct: The gene encoding hOx2R was subcloned into the expression plasmid pcDNA5/FRT/TO; expressed in transfected cells; host or cells: CHO Flp-In cells (pcDNA5/FRT/TO with pOG44 Flp recombinase vector, hygromycin B selection)
T1 sequence (O43614 1-444): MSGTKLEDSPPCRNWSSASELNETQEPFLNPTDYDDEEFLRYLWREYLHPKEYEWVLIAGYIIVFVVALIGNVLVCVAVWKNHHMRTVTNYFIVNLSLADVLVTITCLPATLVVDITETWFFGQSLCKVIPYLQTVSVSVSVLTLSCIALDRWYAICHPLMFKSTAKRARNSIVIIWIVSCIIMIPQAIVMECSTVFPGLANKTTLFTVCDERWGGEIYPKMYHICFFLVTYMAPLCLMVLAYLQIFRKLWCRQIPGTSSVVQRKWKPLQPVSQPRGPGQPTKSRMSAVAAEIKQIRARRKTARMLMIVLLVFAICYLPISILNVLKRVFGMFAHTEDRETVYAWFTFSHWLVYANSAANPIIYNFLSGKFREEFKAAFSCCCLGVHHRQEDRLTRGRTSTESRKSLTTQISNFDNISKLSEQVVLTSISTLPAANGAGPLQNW
Test: Measurement of OX2R agonist activity (cell-based calcium release assay)
Details: hOx2R-CHO Flp-In cells, n≥2 tests; for EC50: intracellular calcium, read-out: EC50; for Emax / Emax (%): normalized to assay buffer (0%) and 10 μM Danavorexton (100%); for Emax: read-out: Emax (%)
How it was run: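 CHO Flp-In cells stably expressing human Ox2R, dye-loaded 1 h at 37 °C in HBSS/20 mM HEPES pH 7.4 with 2.5 mM probenecid and 10 mM CaCl2, then stimulated with compound.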

| EC50 [nM] | Emax [%] | Molecule | Emax (%) |
| --- | --- | --- | --- |
| 0.87 | 99 | CS(=O)(=O)N[C@H]1C[C@@]2(Cc3ccc(F)c(c3)-c3cccc(F)c3OCc3coc2n3)C1 [Example 98, trans-N-(6,19-difluorospiro[8,12-dioxa-21-azatetracyclo[14.3.1.110,13.02,7]henicosa-1(20),2,4,6,10,13(21),16,18-octaene-14,3′-cyclobutane]-1′-yl)methanesulfonamide] |  |
| 3.3 | 96 | CS(=O)(=O)N[C@@H]1CC[C@]2(Cc3ccc(F)c(c3)-c3cccc(F)c3OCc3coc2n3)C1 [Example 99, N-[(1′R,14S)-6,19-difluorospiro[8,12-dioxa-21-azatetracyclo[14.3.1.110,13.02,7]henicosa-1(19),2,4,6,10,13(21),16(20),17-octaene-14,3′-cyclopentane]-1′-yl]methanesulfonamide] |  |
| 0.67 | 96 | CS(=O)(=O)N[C@H]1CC[C@@]2(Cc3cc(c(F)cc3F)-c3cccc(F)c3OCc3cc(=O)[nH]c2n3)C1 [Example 101, N-[(1′S,15R)-6,18,20-trifluoro-12-oxo-spiro[8-oxa-13,22-diazatetracyclo[15.3.1.110,14.02,7]docosa-1(20),2(7),3,5,10,14(22),17(21),18-octaene-15,3′-cyclopentane]-1′-yl]methanesulfonamide] |  |
| 2.1 | 110 | Cc1nc2c(s1)-c1cc(ccc1F)C[C@@]1(CC[C@H](NS(C)(=O)=O)C1)c1nc(co1)CO2 [Example 102, N-[(1′S,13R)-18-fluoro-4-methyl-spiro[7,11-dioxa-3-thia-5,20-diazatetracyclo[13.3.1.19,12.02,6]icosa-1(18),2(6),4,9,12(20),15(19),16-heptaene-13,3′-cyclopentane]-1′-yl]methanesulfonamide] |  |
| 3.3 | 99 | CS(=O)(=O)N[C@H]1CC[C@@]2(Cc3ccc(C(F)F)c(c3)-c3cccc(F)c3OCc3coc2n3)C1 [Example 103, N-[(1′S,14R)-19-(difluoromethyl)-6-fluoro-spiro[8,12-dioxa-21-azatetracyclo[14.3.1.110,13.02,7]henicosa-1(19),2,4,6,10,13(21),16(20),17-octaene-14,3′-cyclopentane]-1′-yl]methanesulfonamide] |  |
| 6.1 | 97 | CS(=O)(=O)N[C@H]1CC[C@@]2(Cc3cc(ncc3F)-c3cccc(F)c3OCc3coc2n3)C1 [Example 105, N-[(1′S,14R)-6,17-difluorospiro[8,12-dioxa-19,21-diazatetracyclo[14.3.1.110,13.02,7]henicosa-1(20),2,4,6,10,13(21),16,18-octaene-14,3′-cyclopentane]-1′-yl]methanesulfonamide] |  |
| 26 | 98 | CS(=O)(=O)N[C@H]1CC[C@@]2(Cc3cc(c(F)cn3)-c3cccc(F)c3OCc3coc2n3)C1 [Example 106, N-[(1′S,14S)-6,19-difluorospiro[8,12-dioxa-17,21-diazatetracyclo[14.3.1.110,13.02,7]henicosa-1(20),2,4,6,10,13(21),16,18-octaene-14,3′-cyclopentane]-1′-yl]methanesulfonamide] |  |
| 2.6 | 100 | CS(=O)(=O)N[C@@H]1CC[C@]2(Cc3cc(c(F)cc3F)-c3cccc(F)c3OCc3coc2n3)C1 [Example 107, N-[(1′R,14S)-6,17,19-trifluorospiro[8,12-dioxa-21-azatetracyclo[14.3.1.110,13.02,7]henicosa-1(19),2,4,6,10,13(21),16(20),17-octaene-14,3′-cyclopentane]-1′-yl]methanesulfonamide] |  |
| 0.45 | 98 | CS(=O)(=O)N[C@H]1CC[C@]2(CC1)Cc1ccc(F)c(c1)-c1cccc(F)c1OCc1ccnc2n1 [Example 108, trans-N-(6,20-difluorospiro[8-oxa-13,22-diazatetracyclo[15.3.1.110,14.02,7]docosa-1(21),2,4,6,10,12,14(22),17,19-nonaene-15,4′-cyclohexane]-1′-yl)methanesulfonamide] |  |
| 0.98 | 96 | CS(=O)(=O)N[C@H]1CC[C@@]2(Cc3cc(c(F)cc3F)-c3cccc(F)c3OCc3nc2ns3)C1 [Example 111, N-[(1′S,14R)-6,17,19-trifluorospiro[8-oxa-11-thia-12,21-diazatetracyclo[14.3.1.110,13.02,7]henicosa-1(19),2,4,6,10(21),12,16(20),17-octaene-14,3′-cyclopentane]-1′-yl]methanesulfonamide] |  |
| 1.3 | 94 | CS(=O)(=O)N[C@H]1CC[C@@]2(Cc3ccc(F)c(c3)-c3cccc(F)c3OCc3noc2n3)C1 [Example 112, N-[(1′S,14R)-6,19-difluorospiro[8,12-dioxa-11,21-diazatetracyclo[14.3.1.110,13.02,7]henicosa-1(20),2,4,6,10,13(21),16,18-octaene-14,3′-cyclopentane]-1′-yl]methanesulfonamide] |  |
| 0.19 | 110 | O=S(=O)(N[C@H]1CC[C@@]2(Cc3ccc(F)c(c3)-c3cccc(F)c3OCc3coc2n3)C1)C(F)(F)F [Example 114, N-[(1′S,14R)-6,19-difluorospiro[8,12-dioxa-21-azatetracyclo[14.3.1.110,13.02,7]henicosa-1(19),2(7),3,5,10,13(21),16(20),17-octaene-14,3′-cyclopentane]-1′-yl]-1,1,1-trifluoro-methanesulfonamide] |  |
| 0.37 | 97 | O=S(=O)(N[C@H]1CC[C@@]2(Cc3ccc(F)c(c3)-c3cccc(F)c3OCc3coc2n3)C1)C(F)F [Example 115, N-[(1′S,14R)-6,19-difluorospiro[8,12-dioxa-21-azatetracyclo[14.3.1.110,13.02,7]henicosa-1(20),2,4,6,10,13(21),16,18-octaene-14,3′-cyclopentane]-1′-yl]-1,1-difluoro-methanesulfonamide] |  |
| 0.1 | 100 | CS(=O)(=O)N[C@@H]1C[C@]2(Cc3ccc(F)c(c3)-c3cccc(F)c3OCc3ccnc2n3)[C@H]2C[C@@H]12 [Example 118, N-[(1′R,2′R,5′S,15R)-6,20-difluorospiro[8-oxa-13,22-diazatetracyclo[15.3.1.110,14.02,7]docosa-1(21),2,4,6,10,12,14(22),17,19-nonaene-15,4′-bicyclo[3.1.0]hexane]-2′-yl]methanesulfonamide] |  |
| 0.52 | 96 | CS(=O)(=O)N[C@@H]1C[C@]2(Cc3ccc(F)c(c3)-c3cc(F)cc(F)c3OCc3ccnc2n3)[C@H]2C[C@@H]12 [Example 119, N-[(1′R,2′R,5′S,15R)-4,6,20-trifluorospiro[8-oxa-13,22-diazatetracyclo[15.3.1.110,14.02,7]docosa-1(21),2,4,6,10,12,14(22),17,19-nonaene-15,4′-bicyclo[3.1.0]hexane]-2′-yl]methanesulfonamide] |  |

| Molecule | EC50 [nM] | Emax [%] | Emax (%) |
| --- | --- | --- | --- |
| N-[(1′S,4′S,15R)-6,20-difluoro-4′-methyl-spiro[8-oxa-13,22-diazatetracyclo[15.3.1.110,14.02,7]docosa-1(20),2,4,6,10,12,14(22),17(21),18-nonaene-15,3′-cyclopentane]-1′-yl]methanesulfonamide or N-[(1′R,4′R,15S)-6,20-difluoro-4′-methyl-spiro[8-oxa-13,22-diazatetracyclo[15.3.1.110,14.02,7]docosa-1(20),2,4,6,10,12,14(22),17(21),18-nonaene-15,3′-cyclopentane]-1′-yl]methanesulfonamide [Example 93] | 3.1 |  | 94 |
| N-[(3′R,14S)-6,17,19-trifluorospiro[8,12-dioxa-21-azatetracyclo[14.3.1.110,13.02,7]henicosa-1(19),2,4,6,10,13(21),16(20),17-octaene-1′,5′-tetrahydrofuran′-3′-yl]methanesulfonamide or N-[(3′S,14R)-6,17,19-trifluorospiro[8,12-dioxa-21-azatetracyclo[14.3.1.110,13.02,7]henicosa-1(19),2,4,6,10,13(21),16(20),17-octaene-1′,5′-tetrahydrofuran′-3′-yl]methanesulfonamide [Example 109] | 1.6 |  | 99 |
| N-[(3′R,14S)-6,17,19-trifluorospiro[8,12-dioxa-21-azatetracyclo[14.3.1.110,13.02,7]henicosa-1(19),2,4,6,10,13(21),16(20),17-octaene-1′,5′-tetrahydrofuran′-3′-yl]methanesulfonamide or N-[(3′S,14R)-6,17,19-trifluorospiro[8,12-dioxa-21-azatetracyclo[14.3.1.110,13.02,7]henicosa-1(19),2,4,6,10,13(21),16(20),17-octaene-1′,5′-tetrahydrofuran′-3′-yl]methanesulfonamide [Example 110] | 0.32 |  | 96 |
